This data set can be described thus: Preliminary finding on bioavailability of pure curcumin.

The source of these data is US9913873B2, “Turmeric extract containing soft pastilles” (priority 2013, dated 2018).

The structures appear in SMILES notation.

`COc1cc(/C=C/C(=O)CC(=O)/C=C/c2ccc(O)c(OC)c2)ccc1O` [Curcumin]: the Bioavailability entry is “poor”.
